Source: publication PMC7112239, “Latency reversal agents modulate HIV antigen processing and presentation to CD8 T cells” (PLoS Pathogens, 2020)
Where no end group is shown, it is not given here.

Legend:
proteasome = conditions: cited from earlier work
Text: Most LRAs selected so far to relieve transcriptional blocks act on signaling pathways and histone acetylation but are not specific to HIV LTR promoters or targeted to the reservoirs, thus their effect should be considered globally on genes and cellular machineries of cell populations.

primary CD4 T cells = experiment: CD25 and CD69 surface activation markers by flow cytometry; assay type: cell-based, human; conditions: 6, 24 and 48 h post treatment
Description: (§1) Romidepsin, Bryostatin, Disulfiram (Sigma), Ingenol-3-angelate (Santa Cruz Biotechnologies), Panobinostat (Selleckchem) were dissolved in DMSO (Fisher Scientific) to make stock solutions. Fresh aliquots were used for each experiment. The final concentrations for each LRA in cell culture were as follows: Panobinostat (30 nM), Romidepsin (40 nM), Disulfiram (500 nM), Bryostatin (10 nM), Ingenol-3-angelate (50 nM). Maximum in vitro stimulation was achieved by addition of anti-CD3/CD28 magnetic beads (Fisher Scientific) at a ratio of 1:1 bead to T cell as in [37]. For combination treatment, both drugs were added at the same time.
Untreated or LRA-treated CD4 T cells were stained with CD4-BV605, CD3-Pacific Blue (BD Biosciences) and HLA-ABC-AlexaFluor700 (Biolegend) to assess purity (95–99%) and CD38-FITC, CD69-PE, CD25-PerCpCy5.5 and HLA-DR-APC (BD Biosciences) to measure surface activation marker levels. Cellular activation levels were calculated by first gating on the double negative population of CD25 and CD69 of the non-treated sample on live, CD4- and CD3-positive cells and applying the same gates to the LRA-treated and CD3/CD28-stimulated samples as done in [37]. A similar gating strategy was applied to determine the proportion of CD38- and HLA-DR-positive CD4 T cells.

[1] = tested on: CD4 T cell extracts (antigen processing machinery); experiment: In vitro degradation of HIV-1 Gag p24-10-35m in extracts of LRA-treated CD4 T cells, mass spectrometry; assay type: biochemical, human; conditions: for HLA-B57 KF11 epitope production: LRA-treated extracts over matched DMSO, n = 6–10 donors
Description: as §1
(§2) 2 nmol of pure peptide (MGH peptide core facility or Biosynthesis, Texas) was degraded with 15 ug of CD4 T cell extracts at 37°C in pH7.4 degradation buffer as in [37, 40]. Aliquots were taken at various time points and the reaction was stopped by addition of 5% (v/v) of Formic acid (Thermo Scientific) and the degradation products were purified by trichloroacetic acid (Sigma) precipitation (final concentration 5% (v/v)) and identified by in-house mass spectrometry as previously described. Briefly, equal amounts of the purified degradation products were injected into a NanoLC Ultra-HPLC (Eksigent) for salt removal and separation, then online nanosprayed into an LTQ Orbitrap Discovery mass spectrometer (Thermo) for identification. Peptides were separated in a NanoLC column (ChromXP C18, 3 um 120Å; Eksigent) over a gradient of 2–60% buffer B (buffer A: 0.1% (v/v) formic acid in MS-grade water (Fisher Scientific)); buffer B: 0.1% (v/v) formic acid in MS-grade acetonitrile (Fisher Scientific) in 95 min with a conserved flow rate of 250 nl/min. Mass spectra were recorded in the 370–2000 Daltons range. In the tandem mass spectrometry mode, the eight most intense peaks were selected with a window of 1 Dalton and fragmented using helium as collision gas and a voltage of 35 V. Peaks in the mass spectra were searched against the source peptide databases with Proteome Discoverer (version 1.3; Thermo) and quantitatively analyzed. For a given peptide, the integrated area under the peak is proportional to the relative abundance of the peptide in the sample. Each sample was run on the mass spectrometer at least twice.

[2] = cited from earlier work
Text: We similarly assessed the processing of another HIV fragment, p24-161-24mer, after LRAs or aCD3/CD28 treatments (Fig 3A).

[3] = tested on: CD4 T cell extracts (antigen processing machinery); experiment: In vitro degradation of HIV-1 Gag p24-161-24m in extracts of LRA-treated CD4 T cells, mass spectrometry; assay type: biochemical, human
Description: as §1, §2

[4] = tested on: post-proteasomal aminopeptidases; experiment: Aminopeptidase hydrolytic activity in live CD4 T cells (fluorogenic H-Leu-AMC); assay type: cell-based, human; conditions: live primary CD4 T cells of healthy donors, 48 h treatment, versus DMSO; Bryostatin 10 nM, Panobinostat 30 nM; 50 μM H-Leu-AMC, 37°C; n = 8
Description: as §1
The proteasome hydrolytic activities caspase-like (50 μM Z-LLE-AMC; EMD Millipore), tryptic (50 μM Boc-LRR-AMC; Bachem), chymotryptic (50 μM Suc-LLVY-AMC; Bachem), post-proteasomal aminopeptidases (50 μM H-Leu-AMC; Bachem) were measured in 25x10^3 live CD4 T cells at given time points after drug treatment with peptidase-specific fluorogenic substrates as in [37, 40]. […] The rate of fluorescence emission, which is proportional to the proteolytic activity, was measured every 600 s at 37°C in a Victor-3 Plate Reader (Perkin Elmer), as in [37].

[5] = tested on: HIV-infected HLA-B57+ CD4 T cells; experiment: Endogenous processing and presentation assay: CD107a degranulation of epitope-specific CD8 T cells and peptide equivalent; assay type: cell-based, human; conditions: for score of peptide presentation efficiency (peptide equivalent over HIV infection rate) at 24 hours / equivalent peptide presented (TW10, ISW9, KF11) at 24 hpi: 24 hpi; for score of peptide presentation efficiency (peptide equivalent over HIV infection rate) at 24 hours: all 3 epitopes; for equivalent peptide presented (TW10, ISW9, KF11) at 24 hpi: radar plots
[6] = over matched DMSO, n = 8–11 healthy donors
[7] = extracts of CD4 T cells treated 48 h, 120-minute degradation, representative experiment

Molecule: CCN(CC)C(=S)SSC(=S)N(CC)CC [Disulfiram]
- proteasome activities in cell lines (proteasome; effect on NF-κB): inhibited proteasome activities
- proportion of CD25+ and/or CD69+ primary CD4 T cells compared to DMSO-treated cells (primary CD4 T cells): Neither HDACi nor disulfiram changed the proportion
- HLA-B57 KF11 epitope production [1]: decreased
- QW11 epitope production ([1]; treated extracts over matched DMSO, n = 2–6 donors): increased

Molecule: ISPRTLNAW [ISW9]
- degradability in the cytosol of primary cells [2]: among the most degradable

Molecule: CC[C@H](C)[C@H](NC(=O)[C@@H](NC(=O)[C@H](CCC(=O)O)NC(=O)[C@@H]1CCCN1C(=O)[C@H](CO)NC(=O)[C@H](Cc1ccccc1)NC(=O)[C@H](C)NC(=O)[C@@H](N)CCCCN)C(C)C)C(=O)N1CCC[C@H]1C(=O)N[C@@H](CCSC)C(=O)N[C@@H](Cc1ccccc1)C(=O)O [KF11]
- degradability in the cytosol of primary cells [2]: less degradable

Molecule: Cc1[nH]c2ccccc2c1CCNCc1ccc(/C=C/C(=O)NO)cc1 [Panobinostat]
- peptide production at each aa of p24-161-24mer [3, 6]: decreased peptide production at most aa
- production of 8-11aa peptides throughout the p24-161-24m sequence ([3]; representative experiment): reduced
- HLA-B57 KF11 epitope production [1]: unchanged
- amount of fragments starting at V2, V15, V17 of p24-10-35m [1, 7]: increased
- reduction of fragments starting at H3 or N12 of p24-10-35m ([1]; extracts of CD4 T cells treated 48 h, 120-minute degradation, representative experiment, versus DMSO): 10 fold
- HLA-B57 ISW9 epitope production ([1]; treated extracts over matched DMSO, n = 4–9 donors): increased
- aminopeptidase hydrolytic activities, average fold change [4]: 0.78 fold
- KF11 and ISW9 peptide equivalent displayed by HIV-infected CD4 T cells [5]: reduction of peptide presentation
- score of peptide presentation efficiency (peptide equivalent over HIV infection rate) at 24 hours [5]: second highest
- equivalent peptide presented (TW10, ISW9, KF11) at 24 hpi [5]: highest KF11 and ISW9 peptide presentations

Molecule: CCC/C=C/C=C/C(=O)O[C@H]1/C(=C/C(=O)OC)C[C@H]2C[C@H]([C@@H](C)O)OC(=O)C[C@H](O)C[C@@H]3C[C@H](OC(C)=O)C(C)(C)[C@](O)(C[C@@H]4C/C(=C/C(=O)OC)C[C@H](/C=C/C(C)(C)[C@]1(O)O2)O4)O3 [Bryostatin]
- increase of production of 8-11aa peptides in p24-161-24m ([3]; first half of the sequence, representative experiment): 2- to 5 fold
- ratio of 8-11aa peptides of p24-161-24m produced in treated over DMSO treated cells ([3]; n = 4–10 donors): significantly increased
- number of significantly changed N- or C-terminal cleavage sites, p24-161-24mer [3, 6]: 6
- proteasome activities in fibroblasts (proteasome): can enhance proteasome activities
- amount of fragments starting at V2, V15, V17 of p24-10-35m [1, 7]: reduced
- difference in amount of 8-11aa peptides of p24-10-35m versus DMSO- or Panobinostat-treated extracts ([1]; second half of the sequence, representative experiment): up to 5 times
- aminopeptidase hydrolytic activities, average fold change [4]: 1.6 fold
- score of peptide presentation efficiency (peptide equivalent over HIV infection rate) at 24 hours [5]: lowest
- equivalent peptide presented (TW10, ISW9, KF11) at 24 hpi [5]: among the lowest
- efficiency of peptide presentation overtime ([5]; 24 to 72 hpi): increased
